This passage reports IC50 results from patent US8653112B2, “Substituted pyrazoles as estrogen receptor ligands” (Karo Bio AB, priority 2009, dated 2014).

In this test the target is T1, human ERβ (ERβ-LBD) (Homo sapiens, UniProt Q92731).
T1 construct: ERβ (ERβ-LBD, pET-N-AT #1, aa 255-530); biotinylation tag (in vivo biotinylated, pBirA co-expression); made in house; host or cells: E. coli BL21 (DE3) pBirA
T1 sequence (Q92731 255-530): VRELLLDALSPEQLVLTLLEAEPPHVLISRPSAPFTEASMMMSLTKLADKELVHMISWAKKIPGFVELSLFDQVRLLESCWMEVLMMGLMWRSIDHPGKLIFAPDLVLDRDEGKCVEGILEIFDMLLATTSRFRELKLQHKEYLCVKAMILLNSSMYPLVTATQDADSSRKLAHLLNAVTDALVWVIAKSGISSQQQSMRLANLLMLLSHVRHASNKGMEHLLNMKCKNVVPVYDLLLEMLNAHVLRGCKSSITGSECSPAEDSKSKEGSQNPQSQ
As to the kind of experiment: Binding assay 1: estrogen receptor binding assay (SPA, 3H-E2 displacement), ERβ. To be noted: displacement of 3H-E2, read-out: binding affinity to the estrogen receptor β-subtype, IC50. The procedure:
Binding Assay 1: Estrogen Receptor Binding Assay
The estrogen receptor ligand binding assays are designed as scintillation proximity assays (SPA), employing the use of tritiated estradiol (^3H-E2) and recombinant expressed biotinylated estrogen receptor binding domains. The binding domains of human ERα (ERα-LBD, pET-N-AT #1, aa 301-595) and ERβ (ERβ-LBD, pET-N-AT #1, aa 255-530) proteins are produced in E. coli ((BL21, (DE3), pBirA)) at 22 C in 2×LB medium supplemented with 50 uM biotin. After 3 h of IPTG induction (0.55 mM), cells are harvested by centrifugation at 7300×g for 15 min and cell pellets stored frozen in −20C. Extraction of ERα and ERβ are performed using 5 g of cells suspended in 50 mL of extraction buffer (50 mM Tris, pH 8.0, 100 mM KCl, 4 mM EDTA, 4 mM DDT and 0.1 mM PMSF). The cell suspension is run twice through a Microfluidizer M-110L (Microfluidics) and centrifuged at 15,000×g for 60 min. The supernatant is aliquoted and stored in −70C.
Dilute ERαLBD or ERβ-LBD extracts in assay buffer (18 mM K2HPO4, 2 mM KH2PO4, 20 mM NasMoO4, 1 mM EDTA, 1 mM TCEP) 1:676 and 1:517 for alpha and beta respectively. The diluted receptor concentrations should be 900 fmol/L. Preincubate the extracts with streptavidin coated polyvinyltoluene SPA beads (RPNQ0007, GE Healthcare) at a concentration of 0.43 mg/mL for 1 hr at room temperature.
Test compounds are evaluated over a range of concentrations from 157 μM to 37.5 pM. The test compound stock solutions should be made in 100% DMSO at 5× of the final concentration desired for testing in the assay. The amount of DMSO in the test wells of the 384 well plate will be 20%. Add 18 μl aliquots of test compounds to the assay plates followed by 35 μl of the preincubated receptor/SPA bead mix and finally add 35 μl of 3 nM ^3H-E2. Cover the plates with a plastic sealer, centrifuge for 1 minute at 1000 rpm and equilibrate over night on a shaker at room temperature. The following morning, centrifuge the plates 5 minutes at 2000 rpm and measure on a plate scintillation counter e.g. a PerkinElmer Microbeta 1450 Trilux.
For compounds able to displace 3[H]-E2 from the receptor an IC50-value (the concentration required to inhibit 50% of the binding of 3[H]-E2) is determined by a non-linear four parameter logistic model; b=((bmax−bmin)/(1+(1/IC50)S))+bmin I is added concentration of binding inhibitor, IC50 is the concentration of inhibitor at half maximal binding and S is a slope factor. The Microbeta-instrument generates the mean cpm (counts per minute) value/minute and corrects for individual variations between the detectors thus generating corrected cpm values.
As for `Cc1cc(O)ccc1-c1nn(C)c(/C=N/O)c1-c1c(C)noc1C` (single isomer, unassigned) [Example 63, (E)-4-(3,5-dimethylisoxazol-4-yl)-3-(4-hydroxy-2-methylphenyl)-1-methyl-1H-pyrazole-5-carbaldehyde oxime], the IC50 lay within 1 to 100 nM.

With `Cn1nc(-c2ccc(O)cc2)c(-c2c(Cl)cccc2Cl)c1C=NO` (single isomer, unassigned) [Example 45, 4-(2,6-dichlorophenyl)-3-(4-hydroxyphenyl)-1-methyl-1H-pyrazole-5-carbaldehyde oxime], the IC50 lay within 1 to 100 nM.

Consider `Cn1nc(-c2ccc(O)cc2)c(-c2c(F)cccc2F)c1C=NO` (single isomer, unassigned) [Example 44, 4-(2,6-difluorophenyl)-3-(4-hydroxyphenyl)-1-methyl-1H-pyrazole-5-carbaldehyde oxime], for which the IC50 was 1 to 100 nM.

As to `Cc1noc(C)c1-c1c(-c2ccc(O)cc2)nn(C)c1C=NO` (single isomer, unassigned) [Example 12, 4-(3,5-dimethylisoxazol-4-yl)-3-(4-hydroxyphenyl)-1-methyl-1H-pyrazole-5-carbaldehyde oxime], the IC50 lay within 1 to 100 nM.

For the molecule `Cc1noc(C)c1-c1c(-c2ccc(O)cc2F)nn(C)c1C=NO` (single isomer, unassigned) [Example 48, 4-(3,5-dimethylisoxazol-4-yl)-3-(2-fluoro-4-hydroxyphenyl)-1-methyl-1H-pyrazole-5-carbaldehyde oxime], the IC50 is 1 to 100 nM.

As for `Cc1noc(C)c1-c1c(C=NO)c(C(C)C)nn1-c1ccc(O)cc1` (single isomer, unassigned) [Example 18, 5-(3,5-dimethylisoxazol-4-yl)-1-(4-hydroxyphenyl)-3-isopropyl-1H-pyrazole-4-carbaldehyde oxime], the IC50 lay within 1 to 100 nM.

As to `CCc1nn(-c2ccc(O)cc2F)c(-c2c(C)noc2C)c1C=NO` (single isomer, unassigned) [Example 27, 5-(3,5-dimethylisoxazol-4-yl)-3-ethyl-1-(2-fluoro-4-hydroxyphenyl)-1H-pyrazole-4-carbaldehyde oxime], the IC50 lay in the range of 1 to 100 nM.
